Data as given in patent publication US20250195528A1, “DOSE REGIMEN OF VICASINABIN” (Hoffmann-La Roche Inc., priority 2022, published 2025).
“Also recorded” adds a separate entry of the source.

Columns and labels:
human CB2 = biological target: T1, human CB2 (Homo sapiens, UniProt P34972); assay: Forskolin-stimulated cAMP inhibition in stably transfected CHO cells; type: cell-based; conditions: for Emax: CHO, normalized to 10 μM CP55′940; for IC50: IC50 ± SE (nM), CHO cells
T1 construct: expressed in transfected cells; host or cells: CHO cells
T1 sequence (P34972 whole entry): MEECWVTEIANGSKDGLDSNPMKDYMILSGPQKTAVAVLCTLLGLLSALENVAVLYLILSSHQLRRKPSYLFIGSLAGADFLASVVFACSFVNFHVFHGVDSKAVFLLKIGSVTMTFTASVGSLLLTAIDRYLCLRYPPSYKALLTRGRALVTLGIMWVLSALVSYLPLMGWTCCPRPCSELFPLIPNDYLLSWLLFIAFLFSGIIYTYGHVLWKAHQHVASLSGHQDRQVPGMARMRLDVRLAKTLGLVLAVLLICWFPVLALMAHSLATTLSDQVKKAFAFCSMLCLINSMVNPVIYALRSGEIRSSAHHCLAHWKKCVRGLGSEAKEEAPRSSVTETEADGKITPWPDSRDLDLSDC
From the text: (§1) Inhibition of cAMP accumulation in Chinese hamster ovary cells stably expressing recombinant CB2 was used to determine the functional potency of RO6868847 for different CB2 species and the selectivity over the closely related CB1.

rat CB2 = biological target: T2, rat CB2 (Rattus norvegicus, UniProt Q9QZN9); assay: as above; type: cell-based
T2 construct: expressed in transfected cells; host or cells: CHO cells
T2 sequence (Q9QZN9 1-360): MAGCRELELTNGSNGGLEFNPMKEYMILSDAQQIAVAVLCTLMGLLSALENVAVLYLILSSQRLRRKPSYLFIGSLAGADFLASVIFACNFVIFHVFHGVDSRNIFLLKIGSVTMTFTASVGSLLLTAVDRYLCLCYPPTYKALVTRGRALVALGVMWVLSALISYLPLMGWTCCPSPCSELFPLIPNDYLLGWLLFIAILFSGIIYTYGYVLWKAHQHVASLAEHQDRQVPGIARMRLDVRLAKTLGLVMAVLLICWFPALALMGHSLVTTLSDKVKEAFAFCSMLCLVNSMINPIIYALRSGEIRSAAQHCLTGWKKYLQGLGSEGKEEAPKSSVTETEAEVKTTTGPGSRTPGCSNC
From the text: as §1

[1] = test system: STZ-induced Type 1 diabetes; type: in vivo; conditions: rat, 10 mg/kg
Experimental: (§2) Pharmacological studies were performed in vitro and in vivo to investigate the potency, selectivity and activity of RO6868847. Pharmacological effects were determined in vivo in two different diabetic animal models which include the streptozotocin (STZ)-induced rat Type 1 diabetes and genetic Type 2 diabetes mouse models as well as in two acute models with acute inflammatory stimulus (LPS-injections) or laser injury (CNV). Additional in vitro pharmacology studies were performed to explore the pharmacological effect of RO6868847 and the suitability of the assays as biomarkers of target engagement and pharmacodynamic effect (PD) in human whole blood obtained from either healthy volunteers or diabetic patients.
(§3) The diversity of the tested models (including acute challenge versus disease-modifying models) and the absence of a recommended nonclinical DME/DR model with proven clinical translatability presents a challenge for the estimation of pharmacologically active exposure in humans.
Exposure was derived from satellite animals or extrapolated from previous PK or PD studies in the same species. […]

leukostasis in the eye = assay: Leukostasis in the eye, rodent diabetic and non-diabetic model; type: in vivo
Experimental: as §2, §3

[2] = test system: LPS-induced cytokine production in whole blood; assay: Ex vivo LPS whole blood challenge in participants of Study BP40387 (MAD); design: species or system human
Experimental: In addition to the CB2R-TE whole blood assay, an in vitro LPS whole blood challenge assay was applied using blood from healthy participants that received multiple 300 mg doses of RO6868847 6 in the MAD study.
In example 2, target engagement of RO6868847 was assessed on circulating B-cells from whole blood samples utilizing a newly developed exploratory flow cytometry assay to monitor RO6868847-induced CB2 receptor internalization on B-cells. […] Upon treatment discontinuation CB2 receptor surface expression returned to baseline approximately within 1 week. Target engagement appeared to reach a plateau at doses of 100 mg RO6868847 with only marginal increases at higher doses of RO6868847. In example 2, pro-inflammatory cytokine production was induced by ex vivo stimulation with LPS in freshly obtained whole blood samples, to measure downstream markers of RO6868847-mediated CB2 receptor internalization and explore its pharmacological profile. Serum levels of TNF-α, G-CSF, IL-1β, and […], of participants in Study BP40387 were assessed to investigate the changes of these cytokines in the presence of repeated dose administration of up to 300 mg RO6868847 once-daily for 14 days. […] It should be noted that the IL1-β analysis was negatively affected by a substantial proportion of baseline data, not being reportable (see FIG. 8), especially at the highest tested doses of 300 mg of RO6868847. Substantial variability in these measurements was observed. However, this was expected and no dedicated predefined statistical analysis was performed since cohort sizes were small for this exploratory assessment.

[3] = design: species or system human; conditions: in vivo
From the text: In Study BP40387, in Part 1, 11 participants (24.4%), Part 2, 1 participant (12.5%), Part 3, 16 participants (40%), Part 4, 12 participants (70.6%) and Part 5, 2 participants (11.1%), had reported at least 1 AE (see Table 22). One participant (5.9%) in Part 4 of the study was withdrawn by the investigator because of AEs. The AEs reported in more than 2 participants in Part 1 was medical device site erythema (6 participants in each PT) and vascular procedure complication (2 participants in each PT), in Part 3 was medical device site erythema (5 participants in each PT), constipation (3 participants in each PT) medical device site papule, medical device site pruritus, vascular procedure complication, headache (each 2 participants), and in Part 4 constipation (2 participants in each PT). […] The event was considered to be related to vicasinabin by the investigator and resolved without sequelae within one week after treatment discontinuation.

[4] = steady-state, up to 300 mg once-daily for 14 days

**Q.** With `Cn1nnnc1Cn1nnc2c(N3CC[C@H](O)C3)nc(C(C)(C)C)nc21` [RO6868847, (3S)-1-[5-tert-butyl-3-[(1-methyltetrazol-5-yl)methyl]triazolo[4,5-d]pyrimidin-7-yl]pyrrolidin-3-ol] as the molecule, how does the “agonist character at human CB2” value (human CB2) read?
**A.** potent, full agonist

**Q.** And the Emax (human CB2; Human)?
**A.** 103%

**Q.** And the Emax (human CB2; second row printed 'Human')?
**A.** 101%

**Q.** What about the IC50 (human CB2; Human, four independent experiments) of the same molecule?
**A.** 2.81 ± 0.28 nM

**Q.** And the IC50 (human CB2; second row printed 'Human')?
**A.** 2.6 ± 0.14 nM

**Q.** What about the IC50 (rat CB2) of the same molecule?
**A.** 0.58 ± 0.04 nM

**Q.** What about the Emax (rat CB2; CHO, Rats, normalized to 10 μM CP55′940) of the same molecule?
**A.** 94.7%

**Q.** And the “effect on disease marker” value [1]?
**A.** full effect

**Q.** And the “unbound AUC0-24 [S-epimer], upper bound of pharmacologically active exposure” value ([1]; in vivo)?
**A.** 546 ng·hr/mL

**Q.** What about the “leukostasis in the eye” value (leukostasis in the eye) of the same molecule?
**A.** inhibition of leukostasis in the eye

**Q.** And the “LPS-induced cytokine release / pro-inflammatory cytokine production” value ([2]; multiple doses, MAD)?
**A.** appeared to attenuate; also recorded: attenuation of LPS-induced cytokine release was observed only at the higher end of the dose range

**Q.** And the “IFN-γ level after ex vivo LPS vs baseline” value [2, 4]?
**A.** did not show any detectable trend

**Q.** What about the “TNF-α, G-CSF and IL1-β levels after ex vivo LPS vs baseline” value [2, 4] of the same molecule?
**A.** concentration-dependent effect

**Q.** And the “participants withdrawn because of AEs” value ([3]; both, human, 14 days)?
**A.** 5.9%

**Q.** What about the “clinical laboratory parameters, ECGs, vital signs, C-SSRS, VAS, TBNK assay, neurological examinations” value [3] of the same molecule?
**A.** No specific concerns
